{
  "source": "patent US20210038668A1",
  "about": "“TRADITIONAL CHINESE MEDICINE COMPOSITION FOR PREVENTING AND/OR TREATING ISCHEMIC REPERFUSION INJURY” (TASLY PHARMACEUTICAL GROUP CO., LTD., priority 2018, published 2021)",
  "format_in_all_cases": "in vivo, C57BL/6 mice",
  "key": {"[1]": {"test_system": "mice with carotid artery thrombus", "experiment": "Neurological scoring, 15-score standard, mice", "conditions": "24 hours after administration; normal = 15, dead = 0; tPA 10 mg/kg alone; T541 20 mg/kg, T141 12 mg/kg, T582 15 mg/kg each + tPA 10 mg/kg", "description": "Neurological scoring was conducted to each group of mice after reperfused for 24 hours based upon scoring standards (15 scores) (Garcia J H et al. Stroke. 1995; 26:627-634.) with slight modification:\nMice capacity of autonomic activity: mice were put into a 25×15 cm cage to record their motion trails within 3 minutes; mice incapable of moving basically were denoted as 0; mice with little activity and not touching any wall of the cage were denoted as 1; mice touching any […] were denoted as 2; mice touching three walls and above were denoted as 3;\nMice limbs symmetry experiment: mice tails were lifted to observe the motion trails of their bodies; mice with completely asymmetric bodies were denoted as 0; mice with almost asymmetrical bodies were denoted as 1; mice with moderately asymmetrical bodies were denoted as 2; mice with almost symmetric bodies were denoted as 3;\nMeasurement of open field test: free motion of mice was observed; mice without any motion were denoted as 0; mice circling around were denoted as 1; mice tilting to one side to make curvilinear motion were denoted as 2; mice making rectilinear motion were denoted as 3; […]\nMice neurological scoring: a sum of the individual score of the above five experiments is calculated; 15 scores denote normal mice and 0 denote dead mice."}, "cerebral hemorrhage": {"test_system": "cerebral hemorrhage", "experiment": "Hemoglobin in right hemisphere tissue (cerebral hemorrhage)", "conditions": "24 h after administration, tPA 10 mg/kg alone, T541 20 mg/kg + tPA 10 mg/kg", "description": "After reperfused for 24 hours, mice were perfused via heart by a PBS buffer precooled at 4° C. and separated brain via craniotomy; the brain was cut from front to back into 5 slices in a brain stereotaxic apparatus; bleeding condition was rapidly shoot by a stereoscopic microscope; then slices were stored at −80° C.; and hemoglobin was measured by a hemoglobin spectrophotometry cassette."}, "Collagen IV": {"test_system": "Collagen IV", "experiment": "Western blotting of Collagen IV, basement membrane", "conditions": "brain tissue 24 hours after administration, sham = 1.00; tPA 10 mg/kg alone; T541 20 mg/kg + tPA 10 mg/kg", "description": "After reperfused for 24 hours, mice were perfused by normal saline; Western blotting analysis was conducted to the penumbra field of infarcted right cerebral cortex. After perfused, mice brain tissue was taken out; cerebellum and prefrontal lobe were cut off; the brain tissue of right brain close to 1 cm of the central joint of left and right hemispheres along the sagittal view; infarcted penumbra field of the rest tissues was cut off along an 45° angle; the cerebral cortex of the penumbra field was peeled off and preserved at low temperature. Right cerebral cortex was taken and added 1×RIPA lysate and a Cocktail protease inhibitor (1:100, Cell Signaling Technology, US) for full pyrolysis and ultrasonic treatment, and then 17000 g were centrifuged for 30 minutes. Supernatant was taken and added 5×loading buffer by volume, boiled for 20 minutes in boiling water, and then preserved at −80° C. Excessive supernatant was taken out and quantified by a BCA protein quantification liquor (ThermoScientific, US) to measure absorbance value at 560 nm of ELIASA and to calculate the protein concentration according to a standard curve. […] The density of electrophoretic strips was analyzed by an image analysis software Quantityone. […]"}, "[2]": {"test_system": "ATP, ADP and AMP of cerebral cortex in ischemic penumbra", "experiment": "ELISA of ATP, ADP and AMP in brain tissue", "conditions": "brain tissue 24 hours after administration", "from_the_text": "To compare the therapeutical effect on reperfusion injury caused by tPA thrombolysis between the traditional Chinese medicinal composition of the present invention and each ingredient (total saponins of Astragalus, the experiment was divided into the following group (tPA is combined with T541, individual ingredient thereof and compatibility of any two ingredients) specifically as follows: tPA+total saponins of Astragalus (tPA+HQ), tPA+ salvianolic acids (tPA+DS), tPA+Panax notoginseng saponins (tPA+SQ), tPA+ total saponins of Astragalus+salvianolic acids (tPA+HQ+DS), tPA+ total saponins of Astragalus+Panax notoginseng saponins (tPA+HQ+SQ), tPA+ salvianolic acids+Panax notoginseng saponins (tPA+DS+SQ) and tPA+T541. Normal saline served as an isovolumetric control. The usage number in each group is 6.\nELISA adsorption kit was used to measure the change on the content of MDA, 8-hydroxyl-2′-deoxyguanosine (8-OHdG), adenosine triphosphate (ATP), adenosine diphosphate (ADP) and adenosine monophosphate (AMP) in the penumbra field of brain tissue cortex of the mode, and the change on the activity of mitochondrial complexes I, II, IV and V. 6 samples were used to repeat the independent experiment for at least three times for each group of data."}, "[3]": {"conditions": "tPA 10 mg/kg alone or + T541 20 mg/kg or ingredients at Table 7 doses"}},
  "data": [
    {"substance": "tPA: tissue-type plasminogen activator (tPA) for thrombolysis", "values": [
      {"measurement": "Neurological scoring, 15-score standard", "setting": "[1]", "result": "5.82 ± 0.52"},
      {"measurement": "Hemoglobin", "setting": "cerebral hemorrhage", "result": "13.55 ± 3.72"},
      {"measurement": "Collagen IV content", "setting": "Collagen IV", "result": "0.68 ± 0.04"},
      {"measurement": "ADP", "setting": "[2]; [3]", "result": "2.51 ± 0.24"},
      {"measurement": "ADP/ATP", "setting": "[2]; [3]", "result": "2.45 ± 0.10"},
      {"measurement": "AMP", "setting": "[2]; [3]", "result": "2.66 ± 0.32"},
      {"measurement": "AMP/ATP", "setting": "[2]; [3]", "result": "2.68 ± 0.34"},
      {"measurement": "ATP", "setting": "[2]; tPA 10 mg/kg alone or + T541 20 mg/kg or ingredients at Table 7 doses (Astragalus saponins 10, Panax notoginseng saponins 2, salvianolic acids 8, in pairs 2 mg/kg)", "result": "1.05 ± 0.13"}
    ]}
  ]
}
